Measurements: article PMC6131501, “Urate transporter inhibitor lesinurad is a selective peroxisome proliferator-activated receptor gamma modulator (sPPARγM) in vitro” (Scientific Reports, 2018)

Target: PPARγ LBD / CBP (Homo sapiens, UniProt P37231)
Assay: PPARγ coactivator recruitment assay (time-resolved FRET), CBP
Format: biochemical
Excerpt: We analyzed the ability of lesinurad to induce recruitment of the coactivators steroid receptor coactivator 1 (SRC-1, also known as nuclear receptor coactivator 1 (NCOA1)) and cyclic AMP responsive element binding (CREB) protein (CBP) to the PPARγ ligand binding domain in a time-resolved FRET assay with labeled PPARγ-LBD and coactivator proteins (Fig. 5D).
Recruitment of coactivator-derived peptides to the PPARγ LBD was studied by homogeneous time-resolved fluorescence resonance energy transfer (HT-FRET or HTRF). Terbium cryptate as streptavidin conjugate (cisbio assays, France) was used as FRET donor. Peptides derived from coactivators SRC-1 [biotin-[…]] or CBP [biotin-[…]] encompassing the coactivator consensus motif LxxLL and N-terminal biotin for stable coupling to streptavidin were purchased (Eurogentec GmbH, Germany). […] FI520 nm was divided by FI620 nm and multiplied with 10,000 giving a dimensionless HTRF signal. Coactivator recruitment by the PPARγ LBD brings FRET donor and acceptor into close proximity resulting in a gain in FRET signal as signal for binding.

PPARγ LBD / CBP, sequence (P37231 238-503 limits assumed): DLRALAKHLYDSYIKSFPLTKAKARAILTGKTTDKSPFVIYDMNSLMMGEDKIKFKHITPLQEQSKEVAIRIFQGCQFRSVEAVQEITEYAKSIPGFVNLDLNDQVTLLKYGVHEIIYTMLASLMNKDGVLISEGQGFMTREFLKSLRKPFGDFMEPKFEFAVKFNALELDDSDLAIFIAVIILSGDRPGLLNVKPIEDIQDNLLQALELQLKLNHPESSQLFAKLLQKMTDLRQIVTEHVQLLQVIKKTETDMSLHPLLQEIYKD
PPARγ LBD / CBP, sequence (Q92793 58-80 partner limits assumed): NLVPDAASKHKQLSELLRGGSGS

O=C(O)CSc1nnc(Br)n1-c1ccc(C2CC2)c2ccccc12 [lesinurad]
EC50 (HTRF, PPARγ LBD, 2 h at RT): 44 ± 8 µM
CBP recruitment efficacy (compared to 1 μM rosiglitazone): 59 ± 4%
